From patent US20220289766A1 (INFLAZOME LIMITED, priority 2019, published 2022)
Structures can show the parent of a compound that is named as a salt.

What was measured:
NLRP3 [1] = target: T1, NLRP3 (Homo sapiens, UniProt Q96P20); assay: Human whole blood IL-1β release assay; format: cell-based; parameters: Plate out 80 μl of whole blood containing 1 μg/ml of LPS in 96-well, clear bottom cell culture plate; from tissue; host or cells: human whole blood from healthy donors; details: LPS 1 μg/ml, compound 3 hrs, nigericin 10 μM 1 hr, IL-1β by AlphaLisa, read-out: HWB IC50
T1 sequence (Q96P20 whole entry): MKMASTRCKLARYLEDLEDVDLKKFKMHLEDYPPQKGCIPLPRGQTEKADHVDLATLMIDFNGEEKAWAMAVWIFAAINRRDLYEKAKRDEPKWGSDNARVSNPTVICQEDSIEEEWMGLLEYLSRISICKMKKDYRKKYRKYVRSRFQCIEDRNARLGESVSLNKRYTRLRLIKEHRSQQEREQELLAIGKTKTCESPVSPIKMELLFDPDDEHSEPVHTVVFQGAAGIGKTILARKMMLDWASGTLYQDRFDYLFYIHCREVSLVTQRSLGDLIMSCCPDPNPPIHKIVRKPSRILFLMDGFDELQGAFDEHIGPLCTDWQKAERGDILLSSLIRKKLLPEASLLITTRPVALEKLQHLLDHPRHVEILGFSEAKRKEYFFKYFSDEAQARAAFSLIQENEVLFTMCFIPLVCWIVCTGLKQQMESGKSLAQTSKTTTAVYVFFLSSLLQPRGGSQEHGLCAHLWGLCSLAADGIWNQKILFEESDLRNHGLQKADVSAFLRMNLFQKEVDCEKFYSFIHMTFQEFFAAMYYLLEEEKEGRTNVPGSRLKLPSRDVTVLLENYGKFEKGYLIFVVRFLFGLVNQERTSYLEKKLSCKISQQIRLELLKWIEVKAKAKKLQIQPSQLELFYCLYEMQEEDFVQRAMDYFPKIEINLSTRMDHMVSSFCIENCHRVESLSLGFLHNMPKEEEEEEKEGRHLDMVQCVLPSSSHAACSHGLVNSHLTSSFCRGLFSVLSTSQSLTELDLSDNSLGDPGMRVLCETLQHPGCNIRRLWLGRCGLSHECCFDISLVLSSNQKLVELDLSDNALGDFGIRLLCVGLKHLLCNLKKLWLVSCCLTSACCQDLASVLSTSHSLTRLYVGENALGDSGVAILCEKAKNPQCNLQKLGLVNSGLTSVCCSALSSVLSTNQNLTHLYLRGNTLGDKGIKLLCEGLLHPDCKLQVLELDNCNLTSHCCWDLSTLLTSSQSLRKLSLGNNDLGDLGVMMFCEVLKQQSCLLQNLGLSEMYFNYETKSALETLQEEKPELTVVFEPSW
Description: For systemic delivery, the ability to inhibit NLRP3 when the compounds are present within the bloodstream is of great importance. For this reason, the NLRP3 inhibitory activity of a number of compounds in human whole blood was investigated in accordance with the following protocol.
Human whole blood in Li-heparin tubes was obtained from healthy donors from a volunteer donor panel. • 1. Plate out 80 μl of whole blood containing 1 μg/ml of LPS in 96-well, clear bottom cell culture plate (Corning #3585) • 2. Add 10 μl compound (8 points half-log dilution with 10 μM top dose) or vehicle (DMSO 0.1% FAC) to the appropriate wells • 3. Incubate for 3 hrs at 37° C., 5% CO2 • 4. Add 10 μl nigericin (Sigma #N7143) (10 μM FAC) to all wells • 5. Incubate for 1 hr at 37° C., 5% CO2 • 6. At the end of the incubation period, spin plates at 300×g for 5 mins to pellet cells and remove […] of supernatant and add to 96-well v-bottom plates for IL-1β analysis (note: these plates containing the supernatants can be stored at −80° C. to be analysed at a later date) • 7. IL-1β was measured according to the manufacturer protocol (Perkin Elmer-AlphaLisa IL-1 Kit AL220F-5000) • 8. IC50 data is fitted to a non-linear regression equation (log inhibitor vs response-variable slope 4-parameters)

NLRP3 [2] = target: T1, NLRP3; assay: THP-1 cells pyroptosis assay; format: cell-based; parameters: Seed THP-1 cells (25,000 cells/well) containing 1.0 μg/ml LPS in 40 μl of RPMI medium; host or cells: THP-1 cells; details: LPS 1 μg/ml, compound 3 hrs, nigericin 5 μM 1 hr, resazurin readout
Description: THP-1 cells (ATCC #TIB-202) were grown in RPMI containing L-glutamine (Gibco #11835) supplemented with 1 mM sodium pyruvate (Sigma #S8636) and penicillin (100 units/ml)/streptomycin (0.1 mg/ml) (Sigma #P4333) in 10% Fetal Bovine Serum (FBS) (Sigma #F0804). The cells were routinely passaged and grown to confluency (˜10^6 cells/ml). On the day of the experiment, THP-1 cells were harvested and resuspended into RPMI medium (without FBS). The cells were then counted and viability ([…]) checked by Trypan blue (Sigma #T8154). Appropriate dilutions were made to give a concentration of 625,000 cells/ml. To this diluted cell solution was added LPS (Sigma #L4524) to give a 1 μg/ml Final Assay Concentration (FAC). 40 μl of the final preparation was aliquoted into each well of a 96-well plate. The plate thus prepared was used for compound screening.
The following method step-by-step assay was followed for compound screening. • 1. Seed THP-1 cells (25,000 cells/well) containing 1.0 μg/ml LPS in 40 μl of RPMI medium (without FBS) in 96-well, black walled, clear bottom cell culture plates coated with poly-D-lysine (VWR #734-0317) • 2. Add 5 μl compound (8 points half-log dilution, with 10 μM top dose) or vehicle (DMSO 0.1% FAC) to the appropriate wells • 3. Incubate for 3 hrs at 37° C., 5% CO2 • 4. Add 5 μl nigericin (Sigma #N7143) (FAC 5 μM) to all wells • 5. Incubate for 1 hr at 37° C., 5% CO2 • 6. At the end of the incubation period, spin plates at 300×g for 3 mins and remove supernatant • 7. Then add 50 μl of resazurin (Sigma #R7017) (FAC 100 μM resazurin in RPMI medium without FBS) and incubate plates for a further 1-2 hrs at 37° C. and 5% CO2 • 8. Plates were read in an Envision reader at Ex 560 nm and Em 590 nm • 9. IC50 data is fitted to a non-linear regression equation (log inhibitor vs response-variable slope 4-parameters)

Row | IC50 (NLRP3 [1]) [µM] | IC50 (NLRP3 [2]) [µM] | SMILES
1 | 0.1 to 0.5 | ≤ 0.1 | CC1(C)COc2cc(ccn2)-c2c(F)cc3c(c2NC(=O)NS(=O)(=O)c2ccn1n2)CCC3 [Example 34, 3-fluoro-19,19-dimethyl-21-oxa-14λ^6-thia-11,13,18,23,27-pentaazapentacyclo-[20.3.1.1^15,18.0^2,10.0^5,9]heptacosa-1(25),2,4,9,15(27),16,22(26),23-octaene-12,14,14-trione]
2 | 0.5 to 1 | ≤ 0.1 | Cc1cc2cc(n1)OCC(C)(C)n1ccc(n1)S(=O)(=O)NC(=O)Nc1c-2ccc2c1CCC2 [Example 36, 19,19,24-trimethyl-21-oxa-14λ^6-thia-11,13,18,23,27-pentaazapentacyclo-[20.3.1.1^15,18.0^2,10.0^5,9]heptacosa-1(26),2,4,9,15(27),16,22,24-octaene-12,14,14-trione]
3 | ≤ 0.1 | ≤ 0.1 | Cc1cc2c(c3c1-c1ccnc(c1)OCC(C)(C)n1ccc(n1)S(=O)(=O)NC(=O)N3)CCO2 [Example 37, 3,19,19-trimethyl-6,21-dioxa-14λ^6-thia-11,13,18,23,27-pentaaza-pentacyclo[20.3.1.1^15,18.0^2,10.0^5,9]-heptacosa-1(25),2(10),3,5(9),15(27),16,22(26),23-octaene-12,14,14-trione, sodium salt]
4 | 1 to 5 | 0.1 to 0.5 | CC1(C)COc2cc(c(F)cn2)-c2ccc3c(c2NC(=O)NS(=O)(=O)c2ccn1n2)CCC3 [Example 38, 25-fluoro-19,19-dimethyl-21-oxa-14λ^6-thia-11,13,18,23,27-pentaaza-pentacyclo[20.3.1.1^15,18.0^2,10.0^5,9]-heptacosa-1(25),2,4,9,15(27),16,22(26),23-octaene-12,14,14-trione, sodium salt]
5 | 0.1 to 0.5 | ≤ 0.1 | O=C1Nc2c(ccc3c2CCC3)-c2ccnc(c2)OCC2(CCOCC2)n2ccc(n2)S(=O)(=O)N1 [Example 39, 21′-oxa-14′λ^6-thia-11′,13′,18′,23′,27′-pentaaza-spiro[oxane-4,19′-pentacyclo-[20.3.1.1^15,18.0^2,10.0^5,9]-heptacosan]-1′(25′),2′,4′,9′,15′(27′),16′,22′(26′),23′-octaene-12′,14′,14′-trione]
6 | 0.1 to 0.5 | ≤ 0.1 | O=C1Nc2c3c(cc(F)c2-c2ccnc(c2)OCCn2cc(F)c(n2)S(=O)(=O)N1)CCC3 [Example 40, 3,16-difluoro-21-oxa-14λ^6-thia-11,13,18,23,27-pentaaza-pentacyclo[20.3.1.1^15,18.0^2,10.0^5,9]-heptacosa-1(25),2(10),3,5(9),15(27),16,22(26),23-octaene-12,14,14-trione]
7 | 0.1 to 0.5 | ≤ 0.1 | CC1(C)COc2cc(ccn2)-c2c(F)cc3c(c2NC(=O)NS(=O)(=O)c2nn1cc2F)CCC3 [Example 41, 3,16-difluoro-19,19-dimethyl-21-oxa-14λ^6-thia-11,13,18,23,27-pentaazapentacyclo-[20.3.1.1^15,18.0^2,10.0^5,9]heptacosa-1(25),2,4,9,15(27),16,22(26),23-octaene-12,14,14-trione, sodium salt]
8 | 0.1 to 0.5 | ≤ 0.1 | O=C1Nc2c(ccc3c2CCC3)-c2cc(F)nc(c2)OCCn2cc(F)c(n2)S(=O)(=O)N1 [Example 42, 16,24-difluoro-21-oxa-14λ^6-thia-11,13,18,23,27-pentaazapentacyclo-[20.3.1.1^15,18.0^2,10.0^5,9]heptacosa-1(26),2,4,9,15(27),16,22,24-octaene-12,14,14-trione]
9 | 0.1 to 0.5 | 0.1 to 0.5 | CC(C)c1cc(F)cc2c1NC(=O)NS(=O)(=O)c1ccn(n1)C(C)(C)COc1cc-2ccn1 [Example 43, 4-fluoro-16,16-dimethyl-6-(propan-2-yl)-18-oxa-11λ^6-thia-8,10,15,20,24-pentaazatetracyclo-[17.3.1.1^12,15.0^2,7]tetracosa-1(22),2(7),3,5,12(24),13,19(23),20-octaene-9,11,11-trione]
10 | 0.1 to 0.5 | ≤ 0.1 | CC(C)c1cc(F)cc2c1NC(=O)NS(=O)(=O)c1nn(cc1F)CCOc1cc-2ccn1 [Example 44, 4,13-difluoro-6-(propan-2-yl)-18-oxa-11λ^6-thia-8,10,15,20,24-pentaazatetracyclo[17.3.1.1^12,15.0^2,7]-tetracosa-1(22),2(7),3,5,12(24),13,19(23),20-octaene-9,11,11-trione, sodium salt]
11 | 1 to 5 | 1 to 5 | Cc1c2ccnc1OCC(C)(C)n1ccc(n1)S(=O)(=O)NC(=O)Nc1c-2ccc2c1CCC2 [Example 45, 19,19,26-trimethyl-21-oxa-14λ^6-thia-11,13,18,23,27-pentaaza-pentacyclo[20.3.1.1^15,18.0^2,10.0^5,9]-heptacosa-1(25),2,4,9,15(27),16,22(26),23-octaene-12,14,14-trione, sodium salt]
12 | 1 to 5 | 1 to 5 | O=C1Nc2c(ccc3c2CCC3)-c2ccnc(c2)OC2CCC(C2)Cn2ccc(n2)S(=O)(=O)N1 (centres unmarked) [Example 46, 24-oxa-14λ^6-thia-11,13,18,26,31-pentaazahexacyclo-[23.3.1.1^15,18.1^20,23.0^2,10.0^5,9]hentriaconta-1(28),2,4,9,15(31),16,25(29),26-octaene-12,14,14-trione]
13 | 0.5 to 1 | 0.5 to 1 | CC(C)c1cnn2c1NC(=O)NS(=O)(=O)c1nn(cc1F)C(C)(C)COc1cc-2ccn1 [Example 47, 12-fluoro-15,15-dimethyl-5-(propan-2-yl)-17-oxa-10λ^6-thia-2,3,7,9,14,19,23-heptaazatetracyclo-[16.3.1.1^11,14.0^2,6]tricosa-1(21),3,5,11(23),12,18(22),19-heptaene-8,10,10-trione]
